Laboratory results as given in patent US20230372357A1, “STABLE PHARMACEUTICAL COMPOSITION” (SANTEN PHARMACEUTICAL CO., LTD., priority 2020, published 2023).

Tests used:
[1] = intracameral injection; cited from earlier work
[2] = Finding at development stage: compound dissolved as aqueous composition; format: physicochemical

Compound | intraocular pressure [1] | hydrolysis of the compound in an aqueous composition ([2]; dissolved and prepared in the form of an aqueous composition) | degradation of the compound under light irradiation ([2]; under the light irradiation)
CCN(CC)CC1CCCCN1CC(=O)N1c2ccccc2C(=O)Nc2cccnc21 (stereo not drawn) [AFDX0116, 11-[2-[2-[(diethylamino)methyl]-1-piperidinyl]acetyl]-5,11-dihydro-6H-pyrido[2,3-b][1,4]benzodiazepin-6-one] | decreased | – | –
CCN(CC)C[C@H]1CCCCN1CC(=O)N1c2ccccc2C(=O)Nc2cccnc21 [AFDX0250, (+)-11-[2-[2-[(diethylamino)methyl]-1-piperidinyl]acetyl]-5,11-dihydro-6H-pyrido[2,3-b][1,4]benzodiazepin-6-one] | – | susceptible to hydrolysis | easily degraded under the light irradiation
